The experiment has as its target T1, human BRD4 bromodomain II (Homo sapiens, UniProt O60885).
T1 construct: human BRD4 bromodomain II [based on Genbank NM_058243, residues 349-460]; host or cells: E. coli
The experiment in a line: Bromodomain binding assay (AlphaScreen), BRD4 BDII. Particulars: AlphaScreen assay, Table C2; read-out: BRD4 BDII IC50. Put shortly:
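Tagged BRD4 BDI or BDII constructs, expressed in E. coli, competed against a K5/K8/K12/K16-acetylated biotin-H4 peptide. Proximity signal between bead pairs after room-temperature incubations gave concentration-response curves, from which IC50 was derived.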
(In general: Bead proximity is the source of the signal in Alpha formats.)

In the case of `CC(=O)Nc1ccc(-c2cccc(-c3ccc(NC(C)=O)c(C(F)(F)F)c3)c2O)cc1F` [Example 138, N,N′-(3-fluoro-2′-hydroxy-3″-(trifluoromethyl)-[1,1′:3′,1″-terphenyl]-4,4″-diyl)diacetamide], the half-maximal inhibitory concentration (IC50) (commonly the concentration that inhibits the measured activity by half) is more than 100 nM.

As for `CC(=O)Nc1ccc(-c2cccc(-c3ccnc(N4CCC(CO)CC4)c3)c2O)cc1F` [Example 198, N-(3-fluoro-2′-hydroxy-3′-(2-(4-(hydroxymethyl)piperidin-1-yl)pyridin-4-yl)-[1,1′-biphenyl]-4-yl)acetamide], the IC50 lay within 1 to 10 nM.

Regarding `O=C(Nc1ccc(-c2cccc(-c3cc(N4CCNCC4)no3)c2O)cc1)C(F)F` [Example 48, 2,2-Difluoro-N-(2′-hydroxy-3′-(3-(piperazin-1-yl)isoxazol-5-yl)-[1,1′-biphenyl]-4-yl)acetamide 2,2,2-trifluoroacetate], the 50% inhibitory concentration (IC50) is more than 100 nM.

Regarding `O=C1CCCN1c1ccc(-c2cccc(-c3cc(N4CCNCC4)no3)c2O)cc1` [Example 43, 1-(2′-Hydroxy-3′-(3-(piperazin-1-yl)isoxazol-5-yl)-[1,1′-biphenyl]-4-yl)pyrrolidin-2-one 2,2,2-trifluoroacetate], the concentration for half-maximal inhibition (IC50) was 10 to 100 nM.

Turning to `CC(=O)Nc1ccc(-c2cccc(-c3ccc(C(C)C)cc3)c2O)cc1F` [Example 74, N-(3-Fluoro-2′-hydroxy-4″-isopropyl-[1,1′:3′,1″-terphenyl]-4-yl)acetamide], the IC50 is more than 100 nM.

`CC(=O)Nc1ccc(-c2cccc(-c3csc(N4CCNCC4)n3)c2O)cc1F` [Example 212, N-(3-Fluoro-2′-hydroxy-3′-(2-(piperazin-1-yl)thiazol-4-yl)-[1,1′-biphenyl]-4-yl)acetamide]: the IC50 is more than 100 nM.

With `COc1cc(-c2cccc(-c3ccc(NC(C)=O)c(F)c3)c2O)ccc1F` [Example 157, N-(3,4″-difluoro-2′-hydroxy-3″-methoxy-[1,1′:3′,1″-terphenyl]-4-yl)acetamide], the IC50 was more than 100 nM.

For the molecule `CC(=O)Nc1ccc(-c2cccc(-c3ccnnc3)c2O)cc1F` [Example 102, N-(3-Fluoro-2′-hydroxy-3′-(pyridazin-4-yl)-[1,1′-biphenyl]-4-yl)acetamide], the IC50 is 10 to 100 nM.

Turning to `CC(=O)Nc1ccc(-c2cccc(-c3cnn(-c4ccccc4)c3)c2O)cc1` [Example 14, N-(2′-Hydroxy-3′-(1-phenyl-1H-pyrazol-4-yl)-[1,1′-biphenyl]-4-yl)acetamide], the half-maximal inhibitory concentration (IC50) was more than 100 nM.

For `CC(=O)Nc1ccc(-c2cccc(-c3cc(F)cc(N4CCNCC4)c3)c2O)cc1F` [Example 178, N-(3,3″-difluoro-2′-hydroxy-5″-(piperazin-1-yl)-[1,1′:3′,1″-terphenyl]-4-yl)acetamide], the IC50 lay in the range of 10 to 100 nM.

Regarding `CC(=O)Nc1ccc(-c2cccc(-c3ccc(NC(C)=O)c(Oc4ccccc4)c3)c2O)cc1F` [Example 53, N,N′-(3-Fluoro-2′-hydroxy-3″-phenoxy-[1,1′:3′,1″-terphenyl]-4,4″-diyl)diacetamide], the half-inhibitory concentration (IC50) was more than 100 nM.

With `O=C1CCCN1c1c(F)cc(-c2cccc(-c3cc(N4CCNCC4)no3)c2O)cc1F` [Example 140, 1-(3,5-difluoro-2′-hydroxy-3′-(3-(piperazin-1-yl)isoxazol-5-yl)-[1,1′-biphenyl]-4-yl)pyrrolidin-2-one], the half-maximal inhibitory concentration (IC50) lay within 10 to 100 nM.

In the case of `CC(=O)Nc1ccc(-c2cccc(-c3cccc(N4CCC5(CCNC5)CC4)c3)c2O)cc1F` [Example 192, N-(3-fluoro-2′-hydroxy-3″-(2,8-diazaspiro[4.5]decan-8-yl)-[1,1′:3′,1″-terphenyl]-4-yl)acetamide], the half-maximal inhibitory concentration (IC50) lay within 10 to 100 nM.

In the case of `CC(=O)Nc1ccc(-c2cccc(-c3ccc4c(c3)CCCO4)c2O)cc1F` [Example 136, N-(3′-(chroman-6-yl)-3-fluoro-2′-hydroxy-[1,1′-biphenyl]-4-yl)acetamide], the IC50 was more than 100 nM.

On to `CC(=O)Nc1ccc(-c2cccc(-c3ccc4ocnc4c3)c2O)cc1F` [Example 122, N-(3′-(Benzo[d]oxazol-5-yl)-3-fluoro-2′-hydroxy-[1,1′-biphenyl]-4-yl)acetamide], for which the IC50 is more than 100 nM.

In the case of `CC(=O)Nc1ccc(-c2cccc(-c3ccc(OC4CCC4)cc3)c2O)cc1F` [Example 117, N-(4″-Cyclobutoxy-3-fluoro-2′-hydroxy-[1,1′:3′,1″-terphenyl]-4-yl)acetamide], the IC50 is more than 100 nM.

Take `COc1c(-c2ccc(NC(C)=O)cc2)cccc1-c1cc(N2CCN(C)CC2)no1` [Example 7]: the IC50 was more than 100 nM.

For the molecule `O=C1NCCN1c1ccc(-c2cccc(-c3cc(N4CCNCC4)no3)c2O)cc1` [Example 41, 1-(2′-Hydroxy-3′-(3-(piperazin-1-yl)isoxazol-5-yl)-[1,1′-biphenyl]-4-yl)imidazolidin-2-one 2,2,2-trifluoroacetate], the IC50 is 10 to 100 nM.

In the case of `CC(=O)Nc1ccc(-c2cccc(-c3cccc(C)c3)c2O)cc1F` [Example 55, N-(3-fluoro-2′-hydroxy-3″-methyl-[1,1′:3′,1″-terphenyl]-4-yl)acetamide], the half-inhibitory concentration (IC50) was more than 100 nM.

As to `CCc1ccc(-c2cccc(-c3ccc(NC(C)=O)c(F)c3)c2O)cc1` [Example 82, N-(4″-Ethyl-3-fluoro-2′-hydroxy-[1,1′:3′,1″-terphenyl]-4-yl)acetamide], the IC50 is more than 100 nM.

On to `CC(=O)Nc1ccc(-c2cccc(-c3ccc(C(F)(F)F)cc3)c2O)cc1F` [Example 83, N-(3-Fluoro-2′-hydroxy-4″-(trifluoromethyl)-[1,1′:3′,1″-terphenyl]-4-yl)acetamide], for which the IC50 was more than 100 nM.

On to `CC(=O)Nc1ccc(-c2cccc(-c3ccnc(C(=O)O)c3)c2O)cc1F` [Example 205, 4-(4′-acetamido-3′-fluoro-2-hydroxy-[1,1′-biphenyl]-3-yl)picolinic acid], for which the IC50 fell in the range of 1 to 10 nM.

Turning to `CC(=O)Nc1ccc(-c2cccc(-c3ccc4ncncc4c3)c2O)cc1F` [Example 142, N-(3-fluoro-2′-hydroxy-3′-(quinazolin-6-yl)-[1,1′-biphenyl]-4-yl)acetamide], the IC50 lay in the range of 10 to 100 nM.

Take `CC(=O)Nc1ccc(-c2cccc(-c3ccc4c(c3)CNC(=O)N4)c2O)cc1F` [Example 155, N-(3-fluoro-2′-hydroxy-3′-(2-oxo-1,2,3,4-tetrahydroquinazolin-6-yl)-[1,1′-biphenyl]-4-yl)acetamide]: the half-inhibitory concentration (IC50) lay in the range of 10 to 100 nM.

`CC(=O)Nc1ccc(-c2cccc(-c3cc(N4CCN(C5COC5)CC4)no3)c2O)cc1F` [Example 153, N-(3-fluoro-2′-hydroxy-3′-(3-(4-(oxetan-3-yl)piperazin-1-yl)isoxazol-5-yl)-[1,1′-biphenyl]-4-yl)acetamide]: the half-inhibitory concentration (IC50) is 10 to 100 nM.

For `CC(=O)Nc1ccc(-c2cccc(-c3ccnc(N4CC(N)C4)c3)c2O)cc1F` [Example 232, N-(3′-(2-(3-aminoazetidin-1-yl)pyridin-4-yl)-3-fluoro-2′-hydroxy-[1,1′-biphenyl]-4-yl)acetamide], the IC50 lay within 10 to 100 nM.

With `CC(=O)Nc1ccc(-c2cccc(-c3cccc(-c4cn[nH]n4)c3)c2O)cc1F` [Example 243, N-(3-fluoro-2′-hydroxy-3″-(2H-1,2,3-triazol-4-yl)-[1,1′:3′,1″-terphenyl]-4-yl)acetamide], the half-maximal inhibitory concentration (IC50) was more than 100 nM.

Turning to `COC(=O)Nc1ccc(-c2cccc(-c3cc(N4CCNCC4)no3)c2O)cc1` [Example 141, Methyl (2′-hydroxy-3′-(3-(piperazin-1-yl)isoxazol-5-yl)-[1,1′-biphenyl]-4-yl)carbamate 2,2,2-trifluoroacetate], the half-maximal inhibitory concentration (IC50) was more than 100 nM.

As for `CCc1cc(-c2cccc(-c3cc(N4CCNCC4)no3)c2O)ccc1NC(C)=O` [Example 22, N-(3-Ethyl-2′-hydroxy-3′-(3-(piperazin-1-yl)isoxazol-5-yl)-[1,1′-biphenyl]-4-yl)acetamide 2,2,2-trifluoroacetate], the concentration for half-maximal inhibition (IC50) is more than 100 nM.

Consider `CC(=O)Nc1ccc(-c2cccc(-c3ccc4c(ccn4C)c3)c2O)cc1F` [Example 130, N-(3-Fluoro-2′-hydroxy-3′-(1-methyl-1H-indol-5-yl)-[1,1′-biphenyl]-4-yl)acetamide], for which the half-maximal inhibitory concentration (IC50) is more than 100 nM.

For the molecule `CC(=O)Nc1ccc(-c2cccc(-c3ccnc(N4CC(O)C4)c3)c2O)cc1F` [Example 225, N-(3-fluoro-2′-hydroxy-3′-(2-(3-hydroxyazetidin-1-yl)pyridin-4-yl)-[1,1′-biphenyl]-4-yl)acetamide], the IC50 was more than 100 nM.

As to `CC(=O)Nc1ccc(-c2cccc(-c3ccc(Cl)c(N4CCNCC4)c3)c2O)cc1F` [Example 241, N-(4″-chloro-3-fluoro-2′-hydroxy-3″-(piperazin-1-yl)-[1,1′:3′,1″-terphenyl]-4-yl)acetamide], the IC50 is 1 to 10 nM.

For the molecule `CC(=O)Nc1ccc(-c2cc(F)cc(-c3cnn(C4CCN(C)CC4)c3)c2O)cc1` [Example 134, N-(5′-fluoro-2′-hydroxy-3′-(1-(1-methylpiperidin-4-yl)-1H-pyrazol-4-yl)-[1,1′-biphenyl]-4-yl)acetamide], the IC50 is more than 100 nM.

With `CC(=O)Nc1ccc(-c2cccc(-c3cc(N4CCN(C(C)C)CC4)no3)c2O)cc1F` [Example 152, N-(3-fluoro-2′-hydroxy-3′-(3-(4-isopropylpiperazin-1-yl)isoxazol-5-yl)-[1,1′-biphenyl]-4-yl)acetamide 2,2,2-trifluoroacetate], the half-maximal inhibitory concentration (IC50) lay in the range of 10 to 100 nM.

Turning to `CC(=O)Nc1ccc(-c2cccc(-c3ccc(OC(C)C)cc3)c2O)cc1F` [Example 106, N-(3-Fluoro-2′-hydroxy-4″-isopropoxy-[1,1′:3′,1″-terphenyl]-4-yl)acetamide], the IC50 is more than 100 nM.

In the case of `CC(=O)Nc1ccc(-c2cccc(-c3cccc(N4CC5(CCNC5)CC4=O)c3)c2O)cc1F` (stereo not shown) [Example 194, N-(3-fluoro-2′-hydroxy-3″-(3-oxo-2,7-diazaspiro[4.4]nonan-2-yl)-[1,1′:3′,1″-terphenyl]-4-yl)acetamide], the concentration for half-maximal inhibition (IC50) was 1 to 10 nM.

As for `O=C1NCCN1c1ccc(-c2cccc(-c3cccc(N4CCNCC4)c3)c2O)cc1F` [Example 197, 1-(3-fluoro-2′-hydroxy-3″-(piperazin-1-yl)-[1,1′:3′,1″-terphenyl]-4-yl)imidazolidin-2-one], the IC50 was in the range of 1 to 10 nM.

The values are drawn from patent publication US20250179059A1 (The Regents of the University of California, priority 2021, published 2025).
